Measurements taken from ChEMBL document CHEMBL5126595, “Identification and anti-tumor evaluation of 3-acyl-indol-based 2,4-diarylaminopyrimidine analogues as potent ALK inhibitors capable of overcoming drug-resistant mutants” (Eur J Med Chem, 2022).
Activity calls are given as the source filed them. The rule behind the calls is not given here.

Key:
[1] = Antiproliferative activity […] EML4-ALK-L1196M cells assessed as inhibition of cell growth incubated for 72 hrs by MTT assay; assay type: functional, cell-based
[2] = AUC (0 to infinity) in Sprague-Dawley rat at 2 mg/kg, iv by LC-MS/MS analysis; assay type: ADME, organism-based; parameters: time infinity, dose 2 mg/kg, route iv; conditions: in vivo
[3] = biological target: ALK tyrosine kinase receptor (Homo sapiens, UniProt Q9UM73, G1202R); experiment: Inhibition of N-terminal GST-tagged human ceritinib-resistant ALK G1202R mutant (1058 to 1620 residues) cytoplasmic domain expressed in baculovirus infected Sf21 cells incubated for 1 hrs in the presence of ATP by mobility shift assay
[4] = system: HT-29; experiment: cells; conditions: Homo sapiens, HT-29, 72 h
Description: Antiproliferative activity against human HT-29 cells assessed as inhibition of cell growth incubated for 72 hrs by MTT assay

[5] = Antiproliferative activity […] EML4-ALK-G1202R cells assessed as inhibition of cell growth incubated for 72 hrs by MTT assay; assay type: functional, cell-based
[6] = system: NCI-H2228; experiment: Induction of apoptosis in human NCI-H2228 cells assessed as late apoptotic cells at 50 nM incubated for 48 hrs by AnnexinV-FITC/propidium iodide staining based flow cytometry analysis (reference value: 4.72 %); assay type: functional
[7] = Volume of distribution at steady state in Sprague-Dawley rat at 2 mg/kg, iv by LC-MS/MS analysis; assay type: ADME, organism-based; conditions: in vivo, read-out: Vdss
[8] = system: NCI-H2228; experiment: Induction of apoptosis in human NCI-H2228 cells assessed as early apoptotic cells by measuring bright green fluorescence at 25 nM incubated for 48 hrs by AO/EB staining based fluorescence microscopic analysis; assay type: functional, cell-based
[9] = system: BaF3; experiment: Antiproliferative activity IL3 […] Ba/F3 cells assessed as inhibition of cell growth incubated for 72 hrs by MTT assay; assay type: functional, cell-based; conditions: Mus musculus, BaF3, 72 h
[10] = system: NCI-H2228; experiment: Induction of apoptosis in human NCI-H2228 cells assessed as early apoptotic cells at 50 nM incubated for 48 hrs by AnnexinV-FITC/propidium iodide staining based flow cytometry analysis (reference value: 2.45 %); assay type: functional
[11] = system: NCI-H2228; experiment: Antitumor activity against human NCI-H2228 cells xenografted in BALB/c nude mouse assessed as tumor regression at 25 mg/kg, IG administered every 2 days for 4 times; assay type: functional, organism-based; conditions: time 8.0 day
[12] = system: NCI-H2228; experiment: Induction of apoptosis in human NCI-H2228 cells assessed as viable cells at 25 nM incubated for 48 hrs by AnnexinV-FITC/propidium iodide staining based flow cytometry analysis (reference value: 92.3 %); assay type: functional; conditions: read-out: Activity
[13] = system: NCI-H2228; experiment: Induction of apoptosis in human NCI-H2228 cells assessed as total apoptotic cells at 25 nM incubated for 48 hrs by AnnexinV-FITC/propidium iodide staining based flow cytometry analysis; assay type: functional
[14] = Antiproliferative activity against human HEK293T cells assessed as inhibition of cell growth incubated for 72 hrs by MTT assay; assay type: toxicity, cell-based, HEK-293T
[15] = system: NCI-H2228; experiment: Induction of apoptosis in human NCI-H2228 cells assessed as late apoptotic cells at 100 nM incubated for 48 hrs by AnnexinV-FITC/propidium iodide staining based flow cytometry analysis (reference value: 4.72 %); assay type: functional
[16] = biological target: T1, ALK tyrosine kinase receptor (Homo sapiens, UniProt Q9UM73); experiment: Inhibition of N-terminal GST-tagged human wild type ALK (1058 to 1620 residues) cytoplasmic domain expressed in baculovirus infected Sf21 cells incubated for 1 hrs in the presence of ATP by mobility shift assay
Target sequence in this assay (Q9UM73 whole entry, the tested form may be a part): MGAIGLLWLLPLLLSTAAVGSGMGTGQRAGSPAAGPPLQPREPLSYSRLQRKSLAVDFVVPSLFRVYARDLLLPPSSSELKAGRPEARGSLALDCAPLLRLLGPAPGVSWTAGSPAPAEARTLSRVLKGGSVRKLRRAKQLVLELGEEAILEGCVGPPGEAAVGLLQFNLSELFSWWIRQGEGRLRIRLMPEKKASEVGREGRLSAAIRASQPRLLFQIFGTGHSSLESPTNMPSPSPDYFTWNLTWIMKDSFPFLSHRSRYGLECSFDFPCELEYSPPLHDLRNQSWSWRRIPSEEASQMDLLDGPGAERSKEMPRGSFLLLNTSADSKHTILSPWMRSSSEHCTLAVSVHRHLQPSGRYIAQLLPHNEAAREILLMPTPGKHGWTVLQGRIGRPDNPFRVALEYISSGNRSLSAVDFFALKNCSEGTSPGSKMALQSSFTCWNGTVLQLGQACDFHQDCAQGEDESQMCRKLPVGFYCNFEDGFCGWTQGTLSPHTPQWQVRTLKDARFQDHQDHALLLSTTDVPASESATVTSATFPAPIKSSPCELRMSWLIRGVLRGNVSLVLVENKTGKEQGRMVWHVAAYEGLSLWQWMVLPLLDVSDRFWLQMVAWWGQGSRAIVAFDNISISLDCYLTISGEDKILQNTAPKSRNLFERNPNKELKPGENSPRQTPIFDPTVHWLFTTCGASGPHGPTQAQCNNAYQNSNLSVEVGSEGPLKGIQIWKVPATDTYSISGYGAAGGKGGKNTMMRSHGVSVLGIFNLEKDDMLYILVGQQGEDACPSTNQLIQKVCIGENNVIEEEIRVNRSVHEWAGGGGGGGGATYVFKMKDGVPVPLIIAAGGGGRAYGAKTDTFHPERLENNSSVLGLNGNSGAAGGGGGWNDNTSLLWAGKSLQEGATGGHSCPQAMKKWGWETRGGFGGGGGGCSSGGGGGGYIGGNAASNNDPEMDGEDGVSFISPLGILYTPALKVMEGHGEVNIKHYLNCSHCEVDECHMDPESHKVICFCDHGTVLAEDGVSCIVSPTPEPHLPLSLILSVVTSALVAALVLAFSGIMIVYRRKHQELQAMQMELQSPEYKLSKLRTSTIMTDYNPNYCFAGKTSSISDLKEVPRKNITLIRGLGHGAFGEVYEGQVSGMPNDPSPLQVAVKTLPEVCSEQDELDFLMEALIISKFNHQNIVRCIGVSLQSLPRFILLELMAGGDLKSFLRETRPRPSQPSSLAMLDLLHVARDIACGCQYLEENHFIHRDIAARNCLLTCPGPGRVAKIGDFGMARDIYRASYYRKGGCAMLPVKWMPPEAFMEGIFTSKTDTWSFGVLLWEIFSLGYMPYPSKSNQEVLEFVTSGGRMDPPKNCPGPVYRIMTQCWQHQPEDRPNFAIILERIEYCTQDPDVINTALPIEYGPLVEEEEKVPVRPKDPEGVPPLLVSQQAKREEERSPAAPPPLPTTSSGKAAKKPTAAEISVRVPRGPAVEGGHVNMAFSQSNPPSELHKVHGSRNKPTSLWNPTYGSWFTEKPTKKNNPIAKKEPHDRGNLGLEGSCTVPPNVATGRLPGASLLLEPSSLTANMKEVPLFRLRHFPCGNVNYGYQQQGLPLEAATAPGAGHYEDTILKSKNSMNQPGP

[17] = Metabolic stability in Sprague-Dawley rat liver microsomes assessed as parent compound remaining preincubated for 5 mins in the presence of NADPH followed by microsomal addition and measured upto 60 mins by HPLC analysis; assay type: ADME, Microsome; conditions: time < 65 min, read-out: Stability
[18] = system: NCI-H2228; experiment: Induction of apoptosis in human NCI-H2228 cells assessed as necrotic cells at 25 nM incubated for 48 hrs by AnnexinV-FITC/propidium iodide staining based flow cytometry analysis (reference value: 0.55 %); assay type: functional
[19] = biological target: T1, ALK tyrosine kinase receptor; experiment: Inhibition of ALK downstream signalling in human NCI-H2228 cells assessed as reduction in phosphorylated AKT level measured after 24 hrs by Western blot analysis; assay type: cell-based; conditions: dose 25-100 nM, DDE = dose-dependent effect
Target sequence in this assay (Q9UM73 19-1620 limits assumed): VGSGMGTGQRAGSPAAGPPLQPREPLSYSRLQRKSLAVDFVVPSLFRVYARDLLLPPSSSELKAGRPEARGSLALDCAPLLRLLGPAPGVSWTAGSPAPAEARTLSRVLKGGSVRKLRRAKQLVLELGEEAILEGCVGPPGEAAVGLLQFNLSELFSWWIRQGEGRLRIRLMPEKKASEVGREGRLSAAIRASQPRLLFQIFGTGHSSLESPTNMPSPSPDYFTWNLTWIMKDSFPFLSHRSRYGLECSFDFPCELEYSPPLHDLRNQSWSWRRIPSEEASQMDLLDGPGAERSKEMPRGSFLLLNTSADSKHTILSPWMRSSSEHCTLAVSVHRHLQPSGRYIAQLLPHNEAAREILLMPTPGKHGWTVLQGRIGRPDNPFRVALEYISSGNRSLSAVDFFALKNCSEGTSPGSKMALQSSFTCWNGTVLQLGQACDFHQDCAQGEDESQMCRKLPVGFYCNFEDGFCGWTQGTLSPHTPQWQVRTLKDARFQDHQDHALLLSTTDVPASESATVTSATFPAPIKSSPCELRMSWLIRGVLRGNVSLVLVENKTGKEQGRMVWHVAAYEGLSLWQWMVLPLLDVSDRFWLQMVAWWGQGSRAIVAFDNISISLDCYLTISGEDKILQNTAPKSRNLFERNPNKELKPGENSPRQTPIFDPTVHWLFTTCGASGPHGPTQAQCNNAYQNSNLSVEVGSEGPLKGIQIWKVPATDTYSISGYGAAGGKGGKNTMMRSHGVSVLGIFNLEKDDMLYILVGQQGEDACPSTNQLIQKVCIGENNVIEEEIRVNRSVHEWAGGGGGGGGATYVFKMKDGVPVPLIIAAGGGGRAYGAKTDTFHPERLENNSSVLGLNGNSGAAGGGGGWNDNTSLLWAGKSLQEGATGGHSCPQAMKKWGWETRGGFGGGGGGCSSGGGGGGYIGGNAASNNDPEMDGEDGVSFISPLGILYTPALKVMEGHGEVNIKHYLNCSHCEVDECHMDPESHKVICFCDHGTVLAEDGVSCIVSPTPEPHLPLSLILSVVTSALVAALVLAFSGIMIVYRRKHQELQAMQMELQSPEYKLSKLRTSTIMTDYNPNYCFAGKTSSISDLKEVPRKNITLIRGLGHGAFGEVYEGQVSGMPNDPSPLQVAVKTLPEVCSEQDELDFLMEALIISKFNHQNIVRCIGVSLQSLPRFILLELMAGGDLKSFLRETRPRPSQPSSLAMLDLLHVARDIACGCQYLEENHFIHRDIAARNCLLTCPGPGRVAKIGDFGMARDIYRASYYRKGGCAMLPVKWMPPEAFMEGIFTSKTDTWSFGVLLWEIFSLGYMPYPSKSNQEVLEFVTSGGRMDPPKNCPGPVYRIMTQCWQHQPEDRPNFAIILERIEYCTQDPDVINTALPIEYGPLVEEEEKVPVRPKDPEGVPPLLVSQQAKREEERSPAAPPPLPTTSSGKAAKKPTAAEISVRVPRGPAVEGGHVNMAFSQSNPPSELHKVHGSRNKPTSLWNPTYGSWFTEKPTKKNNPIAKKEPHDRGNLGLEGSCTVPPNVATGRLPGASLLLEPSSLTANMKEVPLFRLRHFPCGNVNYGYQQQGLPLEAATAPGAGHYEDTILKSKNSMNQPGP

[20] = Clearance in Sprague-Dawley rat at 2 mg/kg, iv by LC-MS/MS analysis; assay type: ADME, organism-based; conditions: in vivo
[21] = system: NCI-H2228; experiment: Induction of apoptosis in human NCI-H2228 cells assessed as viable cells at 100 nM incubated for 48 hrs by AnnexinV-FITC/propidium iodide staining based flow cytometry analysis (reference value: 92.3 %); assay type: functional; conditions: read-out: Activity
[22] = system: NCI-H2228; experiment: Induction of apoptosis in human NCI-H2228 cells assessed as late apoptotic cells at 25 nM incubated for 48 hrs by AnnexinV-FITC/propidium iodide staining based flow cytometry analysis (reference value: 4.72 %); assay type: functional
[23] = system: NCI-H2228; experiment: Induction of cell cycle arrest in human NCI-H2228 cells assessed as decrease in G2 phase cells at 100 nM incubated for 48 hrs by PI/RNase staining based flow cytometry analysis (reference value: 15.38 %); assay type: functional; parameters: scale not given: the % may be the effect or the level left
[24] = system: NCI-H2228; experiment: Induction of apoptosis in human NCI-H2228 cells assessed as ruptured nuclei at 25 to 100 nM incubated for 48 hrs by Hoechst 33342 staining based fluorescence microscopic analysis; assay type: functional, cell-based; conditions: dose 25-100 nM
[25] = system: MDA-MB-231; experiment: cells; conditions: Homo sapiens, MDA-MB-231, 72 h
[26] = MRT in Sprague-Dawley rat at 10 mg/kg, po by LC-MS/MS analysis; assay type: ADME, organism-based; conditions: in vivo
[27] = Toxicity in BALB/c nude mouse xenografted with human NCI-H2228 cells assessed as effect on body weight at 25 to 50 mg/kg, IG administered every 2 days for 7 times; assay type: organism-based; conditions: in vivo, po, 48 h, dose 25-50 mg/kg, time 2 day
[28] = system: NCI-H2228; experiment: Induction of apoptosis in human NCI-H2228 cells assessed as total apoptotic cells at 50 nM incubated for 48 hrs by AnnexinV-FITC/propidium iodide staining based flow cytometry analysis; assay type: functional
[29] = system: NCI-H2228; experiment: Induction of cell cycle arrest in human NCI-H2228 cells assessed as decrease in S phase cells at 100 nM incubated for 48 hrs by PI/RNase staining based flow cytometry analysis (reference value: 34.90 %); assay type: functional; parameters: scale not given: the % may be the effect or the level left
[30] = system: NCI-H2228; experiment: Induction of apoptosis in human NCI-H2228 cells assessed as total apoptotic cells at 100 nM incubated for 48 hrs by AnnexinV-FITC/propidium iodide staining based flow cytometry analysis; assay type: functional
[31] = system: NCI-H2228; experiment: Induction of cell cycle arrest in human NCI-H2228 cells assessed as increase in G1 phase cells at 50 nM incubated for 48 hrs by PI/RNase staining based flow cytometry analysis (reference value: 49.72 %); assay type: functional
[32] = system: NCI-H2228; experiment: Inhibition of colony formation in human NCI-H2228 cells assessed as reduction in colony area at 100 nM incubated for 3 day by crystal violet staining based assay; assay type: functional; conditions: NCI-H2228, 72 h
[33] = Oral bioavailability in Sprague-Dawley rat at 10 mg/kg by LC-MS/MS analysis; assay type: ADME, organism-based; conditions: in vivo
[34] = biological target: T1, ALK tyrosine kinase receptor; experiment: Inhibition of ALK downstream signalling in human NCI-H2228 cells assessed as reduction in ERK level measured after 24 hrs by Western blot analysis; assay type: cell-based; conditions: dose 25-100 nM, DDE = dose-dependent effect
Target sequence in this assay (Q9UM73 19-1620 limits assumed): as above

Sequence of ALK tyrosine kinase receptor (Homo sapiens, UniProt Q9UM73, G1202R) (Q9UM73 19-1620 G1202R limits assumed): as the sequence (Q9UM73 19-1620 limits assumed) above, with G1184R counted along it

CNC(=O)c1ccccc1Nc1nc(Nc2ccc3c(C(=O)N(C)C)c(C)[nH]c3c2)ncc1Cl
IC50 [1]: 21 nM
AUC(0-inf) [2]: 922 ng·h/mL
IC50 [3]: 2.9 nM
IC50 [4]: 2010 nM
IC50 [5]: 15 nM
Activity [6]: 16.5%
Vd [7]: 7.9 L/kg
Activity [8]: Active
IC50 [9]: > 1000 nM
Activity [10]: 7.44%
Activity [11]: Active
viability at 0.025 µM [12]: 84.1%
Activity [13]: 14.23%
IC50 at 72 h [14]: > 10 µM
Activity [15]: 23%
IC50 [16]: 2.3 nM
remaining at 1 h [17]: 29.7%
Activity [18]: 1.68%
inhibition [19]: Dde
clearance [20]: 36.2 mL/min/kg
viability at 0.1 µM [21]: 68.6%
Activity [22]: 10.5%
Activity [23]: 12.18%
Activity [24]: Active
IC50 [25]: 1880 nM
MRT [26]: 6.6 h
Activity [27]: Non-Toxic
Activity [28]: 23.94%
Activity [29]: 29.32%
Activity [30]: 31.7%
Activity [31]: 54.44%
inhibition at 0.1 µM [32]: 100%
bioavailability [33]: 38.2%
inhibition [34]: Dde
